In assay [1] the test system is IL8 production in THP-1 cells. The experiment in a line: LPS induced IL8 production assay in THP-1 cells. It counts as cell-based. To be noted: Homo sapiens, 300 ng/mL LPS, measured at 16 hours. The procedure:
(§1) Provided compounds were also assayed in an LPS (Lipopolysaccharide) or R848 (TLR-7 agonist) induced cytokine (TNFα and IL8) production assay in THP-1 cells, human white blood cells (hWBC), and human whole blood. The exemplary protocol for this assay in THP-1 cells was as follows below.
(§2) THP-1 cells from ATCC (TIB-202) were cultured in RPMI Medium 1640 (Invitrogen, Cat No. A10491-01), 10% fetal bovine serum (Invitrogen, Cat No. 10099141, Lot No. 8172882) containing 100 U/mL Penicillin, 100 μg/mL streptomycin (Invitrogen, Cat No. 15140-122), and 50 uM 2-Mercaptoethanol (Invitrogen, Cat No. 21985023). LPS-EK ultra pure (Invivogen, Cat No. tlrl-peklps) was used to induce IL8 and TNFα production, that was detected in the cell culture supernatant by IL8 HTRF kit (Cisbio, Cat No. 62IL8PEB) and TNFα HTRF kit (Cisbio, Cat No. 62TNFPEB), as per manufacturer instructions. Cells were cultured in 96 well assay plates at 100,000 cells per well, and compounds diluted in final 0.3% DMSO were pre-incubated with cells for 1 hour prior to stimulation with 300 ng/mL LPS. Cytokine production in cell supernatant was measured at 5 hours for TNFα production, and at 16 hours for IL8 production and assessment of cell viability.
(§3) The compound numbers correspond to the compound numbers in Table 1. Compounds having an activity designated as “A” provided an IC50≦0.5 μM; compounds having an activity designated as “B” provided an IC50 of 0.5-5.0 μM; compounds having an activity designated as “C” provided an IC50>5.0 μM. “NA” stands for “not assayed.”

The test system of assay [2] is TNFα production in THP-1 cells. Nature of the assay: LPS induced TNFα production assay in THP-1 cells. The assay is classed as cell-based. The following applies: Homo sapiens, 300 ng/mL LPS, measured at 5 hours. The procedure: as §1, §2, §3
The target of the next assay is T1, IRAK4 (Homo sapiens, UniProt Q9NWZ3).
T1 construct: purchased CARNA Bioscience 09-145
T1 sequence (Q9NWZ3 1-460): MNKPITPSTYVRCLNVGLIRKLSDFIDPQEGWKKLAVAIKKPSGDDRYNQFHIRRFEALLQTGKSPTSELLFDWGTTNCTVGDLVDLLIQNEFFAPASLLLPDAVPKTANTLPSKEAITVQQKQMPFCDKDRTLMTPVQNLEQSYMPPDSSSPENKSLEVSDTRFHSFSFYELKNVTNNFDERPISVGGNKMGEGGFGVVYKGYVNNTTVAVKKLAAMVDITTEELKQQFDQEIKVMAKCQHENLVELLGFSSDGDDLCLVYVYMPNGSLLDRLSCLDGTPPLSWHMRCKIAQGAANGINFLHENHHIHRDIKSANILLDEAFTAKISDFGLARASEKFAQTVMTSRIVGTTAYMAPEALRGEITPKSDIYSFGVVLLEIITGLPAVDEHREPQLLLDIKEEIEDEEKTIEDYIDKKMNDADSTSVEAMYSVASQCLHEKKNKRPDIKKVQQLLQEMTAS
The experiment in a line: IRAK-4 activity inhibition assay (Caliper). It counts as biochemical. To be noted: 3.5 nM IRAK4, 1.5 μM Peptide 8, 37 μM ATP. The procedure: A 1x kinase base buffer was prepared from 50 mM HEPES, pH 7.5 and 0.0015% Brij-35. A stop buffer was prepared from 100 mM HEPES, pH 7.5, 0.015% Brij-35, 0.2% Coating Reagent #3, and 50 mM EDTA.
Test compound was diluted to 50× of the final desired highest inhibitor concentration in reaction by 100% DMSO. 100 ul of this compound dilution was transferred to a well in a 96-well plate. For example, if desired highest inhibitor concentration in IC50 determination is 100 uM, then prepare 5000 uM of compound DMSO solution in this step.
Test compound was serially diluted by transferring 30 μl to 60 μl of 100% DMSO in the next well and so forth for a total of 10 concentrations. 100 μl of 100% DMSO was added to two empty wells for no compound control and no enzyme control in the same 96-well plate.
A new 96-well plate was marked as intermediate plate. 5 μl of compound serial dilution was transferred from source plate to the corresponding wells of the intermediate plate. 45 μl of 1x kinase base buffer (KB buffer) was added to each well of the intermediate plate. The intermediate plate was placed for 10 min on a shaker.
5 μl of each well was transferred from the 96-well intermediate plate to a 384-well plate in duplicates. For example, A1 of the 96-well plate is transferred to A1 and A2 of the 384-well plate. A2 of the 96-well plate is transferred to A3 and A4 of the 384-well plate, and so on.
IRAK4 and DTT in 1x kinase base buffer was added. The 2.5x enzyme mix contained 8.8 nM IRAK4 and 5 mM DTT.
Peptide 8, ATP, MgCl2 and MnCl2 were added in the 1x kinase base buffer. The 2.5x peptide mix contained 3.75 μM peptide 8, 92.5 μM ATP, 12.5 mM MgCl2 and 2.5 mM MnCl2.
Assay plate already contained 5 μl of compound in 10% DMSO. Added 10 μl of 2.5x enzyme solution to each well of the 384-well assay plate, except no enzyme control wells. The final concentration of IRAK4 in reaction was 3.5 nM. Added 10 μl of 1x kinase base buffer to no enzyme control wells in the assay plate. Incubated at room temperature for 10 min.
Added 10 μl of 2.5x peptide solution to each well of the 384-well assay plate. The final concentration of Peptide 8 and ATP was 1.5 μM and 37 μM, respectively. Incubated at for 40 minutes. Added 25 μl of stop buffer to stop reaction. Collected data on Caliper.
Copied conversion % data from Caliper program. Converted conversion % values to percent inhibition values. Percent inhibition=(max−conversion %)/(max−min)*100, where “max” means the conversion % of DMSO control and “min” means the conversion % of no enzyme control.
The compound numbers correspond to the compound numbers in Table 1. Compounds having an activity designated as “A” provided an IC50≦5 μM; compounds having an activity designated as “B” provided an IC50 of 5-20 μM; compounds having an activity designated as “C” provided an IC50 of 20-50 μM; and compounds having an activity designated as “D” provided an IC50≧50 μM. “NA” stands for “not assayed.”

Turning to `c1nc(O[C@H]2CC[C@H](N3CCOCC3)CC2)c2c3c(ccc2n1)CCC3` [Compound I-31, 4-((1r,4r)-4-((8,9-dihydro-7H-cyclopenta[f]quinazolin-1-yl)oxy)cyclohexyl)morpholine], the results for the half-maximal inhibitory concentration (IC50) (in assay [1]; in assay [2]; against IRAK4) were no more than 500 nM, 500 to 5000 nM and no more than 5000 nM, respectively.
For `N#CCc1ccc2ncnc(N[C@H]3CC[C@H](N4CCOCC4)CC3)c2c1` [Compound I-34, 2-(4-(((1r,4r)-4-morpholinocyclohexyl)amino)-quinazolin-6-yl)acetonitrile] the same measures were no more than 500 nM, 500 to 5000 nM and no more than 5000 nM.
For `C#Cc1ccc2ncnc(N[C@H]3CC[C@H](N4CCOCC4)CC3)c2c1` [Compound I-35, 6-ethynyl-N-((1r,4r)-4-morpholinocyclohexyl)quinazolin-4-amine] the same measures were no more than 500 nM, 500 to 5000 nM and no more than 5000 nM.
With `Clc1ccc2ncnc(N[C@H]3CC[C@H](N4CCC5(CC4)CC5)CC3)c2c1` [Compound I-36, N-((1r,4r)-4-(6-azaspiro[2.5]octan-6-yl)cyclohexyl)-6-chloro-quinazolin-4-amine], the figures for the IC50 (in assay [1]; in assay [2]; against IRAK4) were 500 to 5000 nM, no more than 500 nM and no more than 5000 nM, respectively.
For `C=Cc1ccc2ncnc(N[C@H]3CC[C@H](N4CCC5(CC4)CC5)CC3)c2c1` [Compound I-38, N-((1r,4r)-4-(6-azaspiro[2.5]octan-6-yl)cyclohexyl)-6-vinyl-quinazolin-4-amine] the same measures were no more than 500 nM, no more than 500 nM and no more than 5000 nM.
On to `CCc1ccc2ncnc(N[C@H]3CC[C@H](N4CCC5(CC4)CC5)CC3)c2c1` [Compound I-39, N-((1r,4r)-4-(6-azaspiro[2.5]octan-6-yl)cyclohexyl)-6-ethyl-quinazolin-4-amine], for which the results for the 50% inhibitory concentration (IC50) (in assay [1]; in assay [2]; against IRAK4) were no more than 500 nM, no more than 500 nM and no more than 5000 nM, respectively.
As to `OCCc1ccc2ncnc(N[C@H]3CC[C@H](N4CCOCC4)CC3)c2c1` [Compound I-40, 2-(4-(((1r,4r)-4-morpholinocyclohexyl)amino)quinazolin-6-yl)ethanol], the half-maximal inhibitory concentration (IC50) is no more than 500 nM in assay [1], 500 to 5000 nM in assay [2] and no more than 5000 nM against IRAK4.
As to `OC/C=C/c1ccc2ncnc(N[C@H]3CC[C@H](N4CCOCC4)CC3)c2c1` [Compound I-41, (E)-3-(4-(((1r,4r)-4-morpholinocyclohexyl)amino)quinazolin-6-yl)prop-2-en-1-ol], the half-maximal inhibitory concentration (IC50) in assay [1] is no more than 500 nM; in assay [2] it was no more than 500 nM; on IRAK4 it was no more than 5000 nM.
Take `OCC#Cc1ccc2ncnc(N[C@H]3CC[C@H](N4CCC5(CC4)CC5)CC3)c2c1` [Compound I-44, 3-(4-(((1r,4r)-4-(6-azaspiro[2.5]octan-6-yl)cyclohexyl)amino)-quinazolin-6-yl)prop-2-yn-1-ol]: the half-inhibitory concentration (IC50) in assay [1] is no more than 500 nM; in assay [2], no more than 500 nM; at IRAK4 it was no more than 5000 nM.
In the case of `OCCCc1ccc2ncnc(N[C@H]3CC[C@H](N4CCOCC4)CC3)c2c1` [Compound I-46, 3-(4-(((1r,4r)-4-morpholinocyclohexyl)amino)quinazolin-6-yl)propan-1-ol], the IC50 in assay [1] was no more than 500 nM; in assay [2], no more than 500 nM; against IRAK4 it was no more than 5000 nM.
Take `N#Cc1ccc2nccc(N[C@H]3CC[C@H](N4CCOCC4)CC3)c2c1` [Compound I-47, 4-(((1r,4r)-4-morpholinocyclohexyl)amino)quinoline-6-carbo-nitrile]: the values for the IC50 (in assay [1]; in assay [2]; against IRAK4) were no more than 500 nM, 500 to 5000 nM and no more than 5000 nM, respectively.
For `N#CCc1ccc2ncnc(N[C@H]3CC[C@H](N4CCC5(CC4)CC5)CC3)c2c1` [Compound I-52, 2-(4-(((1r,4r)-4-(6-azaspiro[2.5]octan-6-yl)cyclohexyl)amino)quin-azolin-6-yl)acetonitrile] the same measures were no more than 500 nM, no more than 500 nM and no more than 5000 nM.
For `CN(C)[C@H]1CC[C@H](Nc2ncnc3ccc(CC#N)cc23)CC1` [Compound I-53, 2-(4-(((1r,4r)-4-(dimethylamino)cyclohexyl)amino)quinazolin-6-yl)acetonitrile] the same measures were no more than 500 nM, 500 to 5000 nM and no more than 5000 nM.
For `NC(=O)/C=C/c1ccc2ncnc(N[C@H]3CC[C@H](N4CCOCC4)CC3)c2c1` [Compound I-54, (E)-3-(4-(((1r,4r)-4-morpholinocyclohexyl)amino)quinazolin-6-yl)acrylamide], the 50% inhibitory concentration (IC50) is greater than 5000 nM in assay [1], 500 to 5000 nM in assay [2] and no more than 5000 nM on IRAK4.
For `Cc1cc(Nc2nc(N[C@H]3CC[C@H](N4CCOCC4)CC3)c3cc(Br)ccc3n2)sn1` [Compound I-56, 6-bromo-N2-(3-methylisothiazol-5-yl)-N4-((1r,4r)-4-morpholin-ocyclohexyl)quinazoline-2,4-diamine] the same measures were no more than 500 nM, no more than 500 nM and no more than 5000 nM.
For `N#CCc1ccc2ncnc(N[C@H]3CC[C@H](N4CCC5(CC4)COC5)CC3)c2c1` [Compound I-58, 2-(4-(((1r,4r)-4-(2-oxa-7-azaspiro[3.5]nonan-7-yl)cyclohexyl)-amino)quinazolin-6-yl)acetonitrile] the same measures were no more than 500 nM, no more than 500 nM and no more than 5000 nM.
For `c1nc(N[C@H]2CC[C@H](N3CCOCC3)CC2)c2cc(-c3cn[nH]c3)ccc2n1` [Compound I-59, N-((1r,4r)-4-morpholinocyclohexyl)-6-(1H-pyrazol-4-yl)quinazolin-4-amine] the same measures were no more than 500 nM, no more than 500 nM and no more than 5000 nM.

The values are drawn from patent US20150329498A1, “IRAK INHIBITORS AND USES THEREOF” (Nimbus Iris, Inc., priority 2014, published 2015).
